Source: BindingDB's records for PubMed 34154424 (Bayer AG)

Legend:
[1] = target: Tyrosine-protein kinase Fyn (Homo sapiens) (UniProt P06241); assay: Inhibition of T-Fyn (unknown origin) by HTRF assay
[2] = target: Mitogen-activated protein kinase kinase kinase 7, TAK1 kinase (Homo sapiens) (UniProt O43318); assay: Inhibition of Tak1 (unknown origin) in presence of ATP
[3] = target: Mitogen-activated protein kinase kinase kinase 7, TAK1 kinase (Homo sapiens) (UniProt O43318); assay: Inhibition of Tak1 (unknown origin) by competition binding assay

Mitogen-activated protein kinase kinase kinase 7, TAK1 kinase (Homo sapiens), sequence (O43318 whole entry, looked up): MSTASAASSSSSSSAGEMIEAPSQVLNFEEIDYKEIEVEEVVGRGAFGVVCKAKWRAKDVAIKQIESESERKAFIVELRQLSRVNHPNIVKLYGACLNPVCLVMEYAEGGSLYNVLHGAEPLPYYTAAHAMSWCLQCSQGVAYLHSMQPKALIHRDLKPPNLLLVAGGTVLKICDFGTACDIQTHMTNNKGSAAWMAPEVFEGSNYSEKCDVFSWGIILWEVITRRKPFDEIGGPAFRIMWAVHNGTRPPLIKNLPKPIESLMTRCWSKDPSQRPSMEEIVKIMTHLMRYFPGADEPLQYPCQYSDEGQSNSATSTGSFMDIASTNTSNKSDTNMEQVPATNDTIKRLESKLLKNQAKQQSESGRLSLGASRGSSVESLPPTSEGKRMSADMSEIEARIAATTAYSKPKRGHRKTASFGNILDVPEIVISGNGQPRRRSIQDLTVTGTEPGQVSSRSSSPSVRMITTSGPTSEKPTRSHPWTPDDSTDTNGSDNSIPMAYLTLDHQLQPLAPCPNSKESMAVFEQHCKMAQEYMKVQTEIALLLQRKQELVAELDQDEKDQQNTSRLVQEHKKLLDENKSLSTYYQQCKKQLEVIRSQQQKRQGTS
Tyrosine-protein kinase Fyn (Homo sapiens), sequence (P06241 whole entry, looked up): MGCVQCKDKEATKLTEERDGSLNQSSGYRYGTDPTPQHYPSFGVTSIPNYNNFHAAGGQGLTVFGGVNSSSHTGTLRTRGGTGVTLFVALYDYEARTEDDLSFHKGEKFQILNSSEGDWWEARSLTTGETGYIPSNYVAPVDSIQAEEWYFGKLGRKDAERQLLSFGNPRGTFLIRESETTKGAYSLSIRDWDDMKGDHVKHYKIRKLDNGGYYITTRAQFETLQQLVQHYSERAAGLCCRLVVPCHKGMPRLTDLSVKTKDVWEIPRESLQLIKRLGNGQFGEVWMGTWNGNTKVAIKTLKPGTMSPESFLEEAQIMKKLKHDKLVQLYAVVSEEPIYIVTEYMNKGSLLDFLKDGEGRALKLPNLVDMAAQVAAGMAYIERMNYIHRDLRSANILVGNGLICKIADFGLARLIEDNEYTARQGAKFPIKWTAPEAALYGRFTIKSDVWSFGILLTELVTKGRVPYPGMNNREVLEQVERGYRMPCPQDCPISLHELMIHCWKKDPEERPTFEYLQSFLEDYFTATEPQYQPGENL

IC50 [1]: > 5.7 nM | IC50 [2]: > 2 nM | IC50 [3]: > 2 nM
Compound: C[C@H]1CC(=O)Nc2cc(C(=O)NCCC3CC3)ccc2N1C(=O)N1CC2CC2C1 (stereo partly drawn)
